The record followed here is patent US11970497B2, “Tricyclic AKR1C3 dependent KARS inhibitors” (Novartis AG, priority 2019, dated 2024).

Assay [1] relates to H460 (NRF2 pathway mutant cell line with high AKR1C3 expression). In words: In vitro cell proliferation assay (CellTiter-Glo), H460. It counts as cell-based. Conditions: Homo sapiens, NCI-H460, 72 h, read-out: H460 Qualified absolute AC50. The essentials:
(§1)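 Luminescent CellTiter-Glo readout after 3-day compound exposure at 37 °C; 8-point 1:5 series, top 10 μM final. Seeding: 800 cells/well for H460, 2000 cells/well for Hara, RPMI-1640 plus 10% FBS. AC50 and percentage activity derived after normalizing to DMSO (1%) and MG132 (30 μM) controls.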
For orientation: ATP-based viability assays read luminescence as a measure of living cells.

The subject of assay [2] is Hara (NRF2 pathway wild type cell line with low AKR1C3 expression). Nature of the assay: In vitro cell proliferation assay (CellTiter-Glo), Hara. Conditions: 72 h, read-out: HARA Qualified absolute AC50. It counts as cell-based. The essentials:
as §1

The mark [3] stands for this setting: H460 cells, 3 days, CellTiter-Glo, top concentration 10 μM.
Setting [4] is: Hara cells, 3 days, CellTiter-Glo, top concentration 10 μM.

Like-named read-outs stand apart in the source and are kept apart here.

With `O=C(NCc1ccc(F)cc1O)N1CCC2(CC1)C[C@H](O)c1cc(F)ccc1N2` (single isomer, unassigned) [Example 154b], the AC50 came out at 0.464 µM in assay [1] (setting [3]) and 0.749 µM in assay [2] (setting [4]).

As to `O=C1CC2(CCN(C(=O)NCc3ccc(F)c(CO)c3)CC2)Nc2ccc(F)cc21` [Example 83, 6′-fluoro-N-(4-fluoro-3-(hydroxymethyl)benzyl)-4′-oxo-3′,4′-dihydro-1′H-spiro[piperidine-4,2′-quinoline]-1-carboxamide], the AC50 in assay [1] (setting [3]) was 0.361 µM; in assay [2] (setting [4]), above 10 µM.

As for `Nc1ccc(CNC(=O)N2CCC3(CC2)CC(=O)c2cc(F)ccc2N3)cc1Cl` [Example 87, N-(4-amino-3-chlorobenzyl)-6′-fluoro-4′-oxo-3′,4′-dihydro-1′H-spiro[piperidine-4,2′-quinoline]-1-carboxamide], the AC50 in assay [1] (setting [3]) is 0.388 µM; in assay [2] (setting [4]), above 10 µM.

For `Cc1ccc(CNC(=O)N2CCC3(CC2)CC(=O)c2cc(F)cc(F)c2N3)s1` [Example 123, 6′,8′-difluoro-N-((5-methylthiophen-2-yl)methyl)-4′-oxo-3′,4′-dihydro-1′H-spiro[piperidine-4,2′-quinoline]-1-carboxamide], the AC50 in assay [1] (setting [3]) was determined as 1.14 µM; in assay [2] (setting [4]), 5.39 µM.

Consider `C[C@H](O)CNC(=O)c1cc(CNC(=O)N2CCC3(CC2)CC(=O)c2cc(F)ccc2N3C)ccc1F` [Example 117, (S)-6′-fluoro-N-(4-fluoro-3-((2-hydroxypropyl)carbamoyl)benzyl)-1′-methyl-4′-oxo-3′,4′-dihydro-1′H-spiro[piperidine-4,2′-quinoline]-1-carboxamide], for which the AC50 in assay [1] (setting [3]) was 0.956 µM; in assay [2] (setting [4]), above 10 µM.

`O=C1CC2(CCN(C(=O)NCc3ccccc3)CC2)Nc2ccc(F)cc21` [Example 33, N-benzyl-6′-fluoro-4′-oxo-3′,4′-dihydro-1′H-spiro[piperidine-4,2′-quinoline]-1-carboxamide]: the AC50 was found to be 0.075 µM in assay [1] (setting [3]) and 1.19 µM in assay [2] (setting [4]).

Take `Nc1cc(F)ccc1CNC(=O)N1CCC2(CC1)CC(=O)c1cc(F)ccc1N2` [Example 137, N-(2-amino-4-fluorobenzyl)-6′-fluoro-4′-oxo-3′,4′-dihydro-1′H-spiro[piperidine-4,2′-quinoline]-1-carboxamide]: the AC50 in assay [1] (setting [3]) was 2.03 µM; in assay [2] (setting [4]), above 10 µM.

On to `Nc1cc(CNC(=O)N2CCC3(CC2)CC(=O)c2cc(F)ccc2N3)c(F)cc1F` [Example 126, N-(5-amino-2,4-difluorobenzyl)-6′-fluoro-4′-oxo-3′,4′-dihydro-1′H-spiro[piperidine-4,2′-quinoline]-1-carboxamide], for which the AC50 in assay [1] (setting [3]) is 1.29 µM; in assay [2] (setting [4]) it was above 10 µM.

Consider `O=C1CC2(CCN(C(=O)NCc3ccc(O)cc3)CC2)Nc2c(F)cc(F)cc21` [Example 54, 6′,8′-difluoro-N-(4-hydroxybenzyl)-4′-oxo-3′,4′-dihydro-1′H-spiro[piperidine-4,2′-quinoline]-1-carboxamide], for which the figures for the AC50 in assay [1] (setting [3]) and in assay [2] (setting [4]) were 0.003 µM and 9.85 µM, respectively.

Regarding `CN1c2ccc(F)cc2C(=O)CC12CCN(C(=O)NCc1ccc(F)c(C(C)(C)O)c1)CC2` [Example 139, 6′-fluoro-N-(4-fluoro-3-(2-hydroxypropan-2-yl)benzyl)-1′-methyl-4′-oxo-3′,4′-dihydro-1′H-spiro[piperidine-4,2′-quinoline]-1-carboxamide], the AC50 came to 2.3 µM in assay [1] (setting [3]) and 8.83 µM in assay [2] (setting [4]).

For `O=C1CC2(CCN(C(=O)NCc3ccno3)CC2)Nc2ccc(F)cc21` [Example 124, 6′-fluoro-N-(isoxazol-5-ylmethyl)-4′-oxo-3′,4′-dihydro-1′H-spiro[piperidine-4,2′-quinoline]-1-carboxamide], the values for the AC50 in assay [1] (setting [3]) and in assay [2] (setting [4]) were 1.16 µM and above 10 µM, respectively.

For `NC(=O)c1coc(CNC(=O)N2CCC3(CC2)CC(=O)c2cc(F)cc(F)c2N3)c1` [Example 38, N-((4-carbamoylfuran-2-yl)methyl)-6′,8′-difluoro-4′-oxo-3′,4′-dihydro-1′H-spiro[piperidine-4,2′-quinoline]-1-carboxamide], the AC50 in assay [1] (setting [3]) is 0.082 µM; in assay [2] (setting [4]) it was above 10 µM.

Turning to `COc1cc(F)ccc1CNC(=O)N1CCC2(CC1)CC(=O)c1cc(F)ccc1N2C` [Example 2, 6′-fluoro-N-(4-fluoro-2-methoxybenzyl)-1′-methyl-4′-oxo-3′,4′-dihydro-1′H-spiro[piperidine-4,2′-quinoline]-1-carboxamide], the figures for the AC50 in assay [1] (setting [3]) and in assay [2] (setting [4]) were 0.005 µM and above 10 µM, respectively.

Turning to `C[C@@H](O)CNC(=O)c1cc(CNC(=O)N2CCC3(CC2)CC(=O)c2cc(F)ccc2N3C)ccc1F` [Example 94, (R)-6′-fluoro-N-(4-fluoro-3-((2-hydroxypropyl)carbamoyl)benzyl)-1′-methyl-4′-oxo-3′,4′-dihydro-1′H-spiro[piperidine-4,2′-quinoline]-1-carboxamide], the AC50 in assay [1] (setting [3]) stood at 0.471 µM; in assay [2] (setting [4]), 9.49 µM.

Turning to `CN1c2ccc(F)cc2C(=O)CC12CCN(C(=O)NCc1ccc(F)c(NS(C)(=O)=O)c1)CC2` [Example 55, 6′-fluoro-N-(4-fluoro-3-(methylsulfonamido)benzyl)-1′-methyl-4′-oxo-3′,4′-dihydro-1′H-spiro[piperidine-4,2′-quinoline]-1-carboxamide], the AC50 in assay [1] (setting [3]) came out at 0.15 µM; in assay [2] (setting [4]), 5.17 µM.

In the case of `O=C1CC2(CCN(C(=O)NCc3ccc4cc[nH]c4c3)CC2)Nc2ccc(F)cc21` [Example 120, N-((1H-indol-6-yl)methyl)-6′-fluoro-4′-oxo-3′,4′-dihydro-1′H-spiro[piperidine-4,2′-quinoline]-1-carboxamide], the AC50 in assay [1] (setting [3]) is 1.05 µM; in assay [2] (setting [4]), above 10 µM.

On to `CCN1c2ccc(F)cc2C(=O)CC12CCN(C(=O)NCc1cc(NCCO)c(F)cc1F)CC2` [Example 18, N-(2,4-difluoro-5-((2-hydroxyethyl)amino)benzyl)-1′-ethyl-6′-fluoro-4′-oxo-3′,4′-dihydro-1′H-spiro[piperidine-4,2′-quinoline]-1-carboxamide], for which the half-maximal activity concentration (AC50) in assay [1] (setting [3]) was 0.03 µM; in assay [2] (setting [4]) it was 4.19 µM.

On to `Nc1ccc(CNC(=O)N2CCC3(CC2)CC(=O)c2cc(F)ccc2N3)cc1F` [Example 56, N-(4-amino-3-fluorobenzyl)-6′-fluoro-4′-oxo-3′,4′-dihydro-1′H-spiro[piperidine-4,2′-quinoline]-1-carboxamide], for which the AC50 in assay [1] (setting [3]) was 0.166 µM; in assay [2] (setting [4]) it was above 10 µM.

Consider `CN(C)c1cccc(CNC(=O)N2CCC3(CC2)CC(=O)c2cc(F)cc(F)c2N3)n1` [Example 66, N-((6-(dimethylamino)pyridin-2-yl)methyl)-6′,8′-difluoro-4′-oxo-3′,4′-dihydro-1′H-spiro[piperidine-4,2′-quinoline]-1-carboxamide], for which the AC50 in assay [1] (setting [3]) is 0.223 µM; in assay [2] (setting [4]) it was above 10 µM.

Take `O=C1CC2(CCN(C(=O)NCc3cc(NCCO)c(F)cc3F)CC2)Nc2ccc(F)cc21` [Example 77, N-(2,4-difluoro-5-((2-hydroxyethyl)amino)benzyl)-6′-fluoro-4′-oxo-3′,4′-dihydro-1′H-spiro[piperidine-4,2′-quinoline]-1-carboxamide]: the figures for the AC50 in assay [1] (setting [3]) and in assay [2] (setting [4]) were 0.311 µM and above 10 µM, respectively.

With `CCCNC(=O)c1cc(CNC(=O)N2CCC3(CC2)CC(=O)c2cc(F)ccc2N3)ccc1F` [Example 143, 6′-fluoro-N-(4-fluoro-3-(propylcarbamoyl)benzyl)-4′-oxo-3′,4′-dihydro-1′H-spiro[piperidine-4,2′-quinoline]-1-carboxamide], the AC50 in assay [1] (setting [3]) was 2.62 µM; in assay [2] (setting [4]), above 10 µM.

In the case of `Nc1cc(F)c(CNC(=O)N2CCC3(CC2)CC(=O)c2cc(F)ccc2N3)cc1F` [Example 49, N-(4-amino-2,5-difluorobenzyl)-6′-fluoro-4′-oxo-3′,4′-dihydro-1′H-spiro[piperidine-4,2′-quinoline]-1-carboxamide], the AC50 in assay [1] (setting [3]) was 0.113 µM; in assay [2] (setting [4]), above 10 µM.

`O=C1CC2(CCN(C(=O)NCc3ccc(F)cc3C(F)(F)F)CC2)Nc2ccc(F)cc21` [Example 67, 6′-fluoro-N-(4-fluoro-2-(trifluoromethyl)benzyl)-4′-oxo-3′,4′-dihydro-1′H-spiro[piperidine-4,2′-quinoline]-1-carboxamide]: the AC50 turned out to be 0.225 µM in assay [1] (setting [3]) and 2.3 µM in assay [2] (setting [4]).

Turning to `O=C1CC2(CCN(C(=O)NCc3ccoc3)CC2)Nc2c(F)cc(F)cc21` [Example 46, 6′,8′-difluoro-N-(furan-3-ylmethyl)-4′-oxo-3′,4′-dihydro-1′H-spiro[piperidine-4,2′-quinoline]-1-carboxamide], the AC50 was found to be 0.105 µM in assay [1] (setting [3]) and 2.94 µM in assay [2] (setting [4]).

For `CN1c2ccc(F)cc2C(=O)CC12CCN(C(=O)NCc1ccc(F)c(NCC(C)(C)C(=O)O)c1)CC2` [Example 140, 3-((2-fluoro-5-((6′-fluoro-1′-methyl-4′-oxo-3′,4′-dihydro-1′H-spiro[piperidine-4,2′-quinoline]-1-carboxamido)methyl)phenyl)amino)-2,2-dimethylpropanoic acid], the AC50 in assay [1] was 2.34 µM; in assay [2] it was above 10 µM.

Take `CN1c2ccc(F)cc2C(=O)CC12CCN(C(=O)NCc1ccc(F)c(CC(N)=O)c1)CC2` [Example 62, N-(3-(2-amino-2-oxoethyl)-4-fluorobenzyl)-6′-fluoro-1′-methyl-4′-oxo-3′,4′-dihydro-1′H-spiro[piperidine-4,2′-quinoline]-1-carboxamide]: the AC50 in assay [1] (setting [3]) was 0.212 µM; in assay [2] (setting [4]), above 10 µM.

On to `CCN1c2ccc(F)cc2C(=O)CC12CCN(C(=O)NCc1ccc(F)cc1)CC2` [Example 6, 1′-ethyl-6′-fluoro-N-(4-fluorobenzyl)-4′-oxo-3′,4′-dihydro-1′H-spiro[piperidine-4,2′-quinoline]-1-carboxamide], for which the results for the AC50 in assay [1] (setting [3]) and in assay [2] (setting [4]) were 0.009 µM and above 10 µM, respectively.

Usually AC50 stands for the concentration at which the activity in the assay is half-maximal.
